We go through 2 compounds from patent publication US20230165785A1, “METHOD FOR OBTAINING AN EXTRACT OF SANDALWOOD, COMPOSITIONS COMPRISING SAME AND COSMETIC USES THEREOF” (ISP INVESTMENTS LLC, priority 2020, published 2023).

SMILES strings stand for the structures.

The test system of assay [1] is filaggrin. Nature of the assay: Filaggrin expression by indirect immunofluorescence on skin biopsies. It is filed as cell-based, human. To be noted: positive control, concentration not given. The method, then:
Filaggrin is a protein involved in the cohesion and maintenance of the hydration of the upper layer of the epidermis, which is essential for maintaining the homeostasis of the skin barrier.
Filaggrin expression was assessed by indirect immunofluorescence on skin biopsies, pre-treated by topical application of the solubilised extract of depleted sandalwood from Example 1, diluted in 0.1% octyldodecanol (volume/volume percentages, twice daily), for 48 hours. In parallel, biopsies were treated with a sandalwood essential oil of Example 3 from the same geographical site and tested under the same conditions. Control biopsies incubated in parallel under the same conditions were given the placebo (octyldodecanol). After incubation, the biopsies were fixed and embedded in paraffin for histological sections. Detection of filaggrin was performed by incubation with anti-filaggrin antibody (Santa Cruz). After one and a half hours of incubation followed by rinses, the sections were incubated in the presence of the anti-mouse secondary antibody coupled to a fluorophore (Alexa Fluor® 488, Invitrogen). The sections were then examined under an Epi-fluorescence microscope (Zeiss Axiovert 200M microscope). Filaggrin expression was then observed and quantified by image analysis (Volocity® image analysis software, Improvision).

Assay [2] has as its system olfactory receptor OR2AT4. Nature of the assay: OR2AT4 expression by indirect immunofluorescence on human skin biopsies. The format is cell-based. The method, then:
OR2AT4 expression was assessed by indirect immunofluorescence on skin biopsies, pre-treated by topical application of the solubilised extract of depleted sandalwood of Example 1 at 0.1%, 0.5% and 1% (volume/volume percentages), for 48 hours (twice daily). For this purpose, the solubilised extract of depleted sandalwood from Example 1 was diluted in 0.1%, 0.5% and 1% (volume/volume percentages) octyldodecanol. Other biopsies were given similar dilutions of sandalwood essential oil from Example 3 or a synthetic analogue Sandalore. Control biopsies incubated in parallel under the same conditions received placebo (octyldodecanol). After incubation, the biopsies were fixed and embedded in paraffin for histological sections. Detection of the OR2AT4 receptor was performed by incubation with anti-OR2AT4 antibody (Novus). After one and a half hours of incubation followed by rinses, the sections are incubated in the presence of the anti-rabbit secondary antibody coupled to a fluorophore (Alexa Fluor® 488, Invitrogen). The sections were then examined under an Epi-fluorescence microscope (Zeiss Axiovert 200M microscope). OR2AT4 expression was then observed and quantified by image analysis (Volocity® image analysis software, Improvision).

In the case of `O=C(O[C@@H]1Cc2c(O)cc(O)cc2O[C@@H]1c1cc(O)c(O)c(O)c1)c1cc(O)c(O)c(O)c1` [EGCG, epigallocatechin gallate], the increase in filaggrin result in assay [1] is listed as “+27%”.

In the case of `CC1=CCC(CCC(C)C(C)O)C1(C)C` (centres unmarked) [Sandalore], the OR2AT4 expression increase in assay [2] (1% (v/v) in octyldodecanol, topical, twice daily, 48 hours, vs placebo) is recorded as 28%; in assay [2] (3% topical application), 72%; in assay [2] (5% topical application), 71%. For the same compound, the “effect on OR2AT4 expression” value in assay [2] (application of less than 1%) is on record as “does not seem to have any effect”.
